How the values were obtained:
[1] = biological target: T1, human P2X2/3 receptor (Homo sapiens, UniProt P56373+Q9UBL9); assay: P2X2/3 FLIPR (Fluorometric Imaging Plate Reader) assay; assay type: cell-based; conditions: CHO-K1 cells transfected with human P2X2/3; agonist α,β-meATP 5 μM; FLIPR calcium fluorescence
T1 construct: expressed in transfected cells; host or cells: CHO-K1
T1 sequence (Q9UBL9 1-471): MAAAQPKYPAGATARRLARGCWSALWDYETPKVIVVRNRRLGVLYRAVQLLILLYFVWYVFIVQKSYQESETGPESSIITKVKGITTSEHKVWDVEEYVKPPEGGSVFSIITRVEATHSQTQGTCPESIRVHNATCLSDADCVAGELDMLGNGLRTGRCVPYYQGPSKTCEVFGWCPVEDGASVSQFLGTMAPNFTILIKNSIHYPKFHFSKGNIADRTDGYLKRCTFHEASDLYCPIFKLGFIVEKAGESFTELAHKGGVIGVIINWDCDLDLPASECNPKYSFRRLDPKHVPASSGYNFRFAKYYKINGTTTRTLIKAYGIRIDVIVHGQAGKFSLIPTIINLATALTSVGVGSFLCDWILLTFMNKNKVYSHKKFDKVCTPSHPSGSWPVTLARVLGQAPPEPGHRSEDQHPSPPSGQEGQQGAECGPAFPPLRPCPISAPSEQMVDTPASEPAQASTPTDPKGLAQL
T1 sequence (P56373 1-397): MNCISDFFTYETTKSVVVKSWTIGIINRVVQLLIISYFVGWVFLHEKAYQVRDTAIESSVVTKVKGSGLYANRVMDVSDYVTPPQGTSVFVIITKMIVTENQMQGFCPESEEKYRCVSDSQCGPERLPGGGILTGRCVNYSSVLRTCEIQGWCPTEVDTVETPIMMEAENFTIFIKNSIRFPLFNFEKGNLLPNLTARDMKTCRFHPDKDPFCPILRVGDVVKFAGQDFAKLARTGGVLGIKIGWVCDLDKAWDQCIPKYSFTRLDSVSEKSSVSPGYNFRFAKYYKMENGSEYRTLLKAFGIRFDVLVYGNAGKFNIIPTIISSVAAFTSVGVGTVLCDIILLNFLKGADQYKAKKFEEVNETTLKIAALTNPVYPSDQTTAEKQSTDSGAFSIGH
Description: (§1) CHO-K1 cells were transfected with cloned rat P2X3 or human P2X2/3 receptor subunits and passaged in flasks. 18-24 hours before the FLIPR experiment, cells were released from their flasks, centrifuged, and resuspended in nutrient medium at 2.5×10^5 cells/ml. The cells were aliquoted into black-walled 96-well plates at a density of 50,000 cells/well and incubated overnight in 5% CO2 at 37° C. On the day of the experiment, cells were washed in FLIPR buffer (calcium- and magnesium-free Hank's balanced salt solution, 10 mM HEPES, 2 mM CaCl2, 2.5 mM probenecid; FB). Each well received 100 μl FB and 100 μl of the fluorescent dye Fluo-3 AM [2 μM final conc.]. […]
(§2) Test compounds (dissolved in DMSO at 10 mM and serially diluted with FB) or vehicle were added to each well (25 μl of a 4× solution) and allowed to equilibrate for 20 minutes at room temperature. The plates were then placed in the FLIPR and a baseline fluorescence measurement (excitation at 488 nm and emission at 510-570 nm) was obtained for 10 seconds before a 100 μl/well agonist or vehicle addition. […] Fluorescence was measured for an additional 2 minutes at 1 second intervals after agonist addition. A final addition of ionomycin (5 μM, final concentration) was made to each well of the FLIPR test plate to establish cell viability and maximum fluorescence of dye-bound cytosolic calcium. […]

[2] = biological target: T2, rat P2X3 receptor (Rattus norvegicus, UniProt P49654); assay: P2X3 FLIPR (Fluorometric Imaging Plate Reader) assay; assay type: cell-based; conditions: CHO-K1 cells transfected with rat P2X3; agonist α,β-meATP 1 μM; FLIPR calcium fluorescence
T2 construct: expressed in transfected cells; host or cells: CHO-K1
T2 sequence (P49654 1-397): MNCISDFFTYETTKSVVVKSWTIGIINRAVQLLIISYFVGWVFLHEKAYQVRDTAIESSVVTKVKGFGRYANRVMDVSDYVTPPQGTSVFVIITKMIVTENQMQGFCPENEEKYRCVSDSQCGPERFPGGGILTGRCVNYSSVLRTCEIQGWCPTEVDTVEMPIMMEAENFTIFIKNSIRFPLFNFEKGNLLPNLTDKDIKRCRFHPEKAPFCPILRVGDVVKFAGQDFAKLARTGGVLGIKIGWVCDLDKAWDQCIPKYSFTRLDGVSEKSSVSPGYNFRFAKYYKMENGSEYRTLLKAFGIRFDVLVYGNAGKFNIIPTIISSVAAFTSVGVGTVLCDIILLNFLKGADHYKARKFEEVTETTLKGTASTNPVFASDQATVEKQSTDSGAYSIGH
Description: as §1, §2

[3] = Determination of pharmacokinetic parameters after oral gavage of prodrug; assay type: in vivo, dogs; conditions: plasma; prodrug dosed orally by gavage, dose equivalent to 0.127 mmol; hplc
Description: Groups of three dogs were used for each dose level of an experimental compound and one (1) non-cannulated dog was used as a vehicle control. Animals were allowed normal access to chow and water throughout the experiment. The prodrug N-[4-amino-5-(5-iodo-2-isopropyl-4-methoxy-phenoxy)-pyrimidin-2-yl]-2-dipropylamino-acetamide was formulated as an aqueous solution or an aqueous suspension and a dose equivalent to (0.127 mmol) was administered orally by gavage. A blood sample (0.3 mL) was collected from the […] at 0.5, 1, 2, 3, 4, 6 and 8 hours after via the jugular cannula. A sample of at least 0.3 mL of blood was withdrawn from the untreated animals 3 hours after dosing. After 24 hours from dosing, a blood sample was collected from all treated and control animals. Potassium oxalate/NaF was added to the samples which were stored on ice during sampling procedure. The samples were spun in a refrigerated centrifuge at −4° C. as soon as possible and the plasma samples were stored −20° C. immediately after centrifugation and later transferred to a −80° C. freezer until analysis. The concentration of the prodrug N-[4-amino-5-(5-iodo-2-isopropyl-4-methoxy-phenoxy)-pyrimidin-2-yl]-2-dipropylamino-acetamide and the parent compound 5-(5-Iodo-2-isopropyl-4-methoxy-phenoxy)-pyrimidine-2,4-diamine was determined by hplc.

SMILES	pIC50 for the P2X2/3 receptor [1]	pIC50 for the P2X3 receptor [2]	melting point	AUC of the prodrug [3]	Cmax of the prodrug [3]
COc1cc(C(C)C)c(Oc2cnc(NC(=O)C(C)C)nc2N)cc1I [N-[4-Amino-5-(5-iodo-2-isopropyl-4-methoxy-phenoxy) -pyrimidin-2-yl]-isobutyramide]	~7.4	approximately 7.8			
COc1cc(C(C)C)c(Oc2cnc(NC(=O)CNC3CCCC3)nc2N)cc1I [Compound 3, N-[4-Amino-5-(5-iodo-2-isopropyl-4-methoxy-phenoxy)-pyrimidin-2-yl]-2-cyclopentylamino-acetamide]			176.5 to 178 °C		
CCCN(CCC)CC(=O)Nc1ncc(Oc2cc(I)c(OC)cc2C(C)C)c(N)n1 [Compound 2, N-[4-Amino-5-(5-iodo-2-isopropyl-4-methoxy-phenoxy)-pyrimidin-2-yl]-2-dipropylamino-acetamide]			129 to 131 °C	21.1 ng·h/mL	15.2 ng/mL

— patent US7589090B2, “Diaminopyrimidines as P2X3 and P2X2/3 modulators” (Roche Palo Alto LLC, priority 2007, dated 2009)
